Test results taken from PubChem BioAssay (NCI).
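Five concentrations, 48 hours, 96-well plates. Definition used: TGI = concentration required for complete inhibition of growth.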

Tests used:
Test in all cases: DTP human tumour cell line panel, 48 h
786-0 renal = system: 786-0 renal
A498 renal = system: A498 renal
A549 NSCLC = system: A549 NSCLC
ACHN renal = system: ACHN renal
CAKI-1 renal = system: CAKI-1 renal
CCRF-CEM leukemia = system: CCRF-CEM leukemia
COLO 205 colon = system: COLO 205 colon
DLD-1 colon = system: DLD-1 colon
DMS 114 small cell lung = system: DMS 114 small cell lung
DMS 273 small cell lung = system: DMS 273 small cell lung
EKVX NSCLC = system: EKVX NSCLC
HCC-2998 colon = system: HCC-2998 colon
HCT-116 colon = system: HCT-116 colon
HCT-15 colon = system: HCT-15 colon
HL-60(TB) leukemia = system: HL-60(TB) leukemia
HOP-18 NSCLC = system: HOP-18 NSCLC
HOP-62 NSCLC = system: HOP-62 NSCLC
HOP-92 NSCLC = system: HOP-92 NSCLC
HT29 colon = system: HT29 colon
IGROV1 ovarian = system: IGROV1 ovarian
K-562 leukemia = system: K-562 leukemia
KM12 colon = system: KM12 colon
KM20L2 colon = system: KM20L2 colon
LOX IMVI melanoma = system: LOX IMVI melanoma
LXFL 529 NSCLC = system: LXFL 529 NSCLC
M14 melanoma = system: M14 melanoma
M19-MEL melanoma = system: M19-MEL melanoma
MALME-3M melanoma = system: MALME-3M melanoma
MOLT-4 leukemia = system: MOLT-4 leukemia
NCI-H226 lung = system: NCI-H226 lung
NCI-H23 lung = system: NCI-H23 lung
NCI-H460 lung = system: NCI-H460 lung
NCI-H522 lung = system: NCI-H522 lung
OVCAR-3 ovarian = system: OVCAR-3 ovarian
OVCAR-4 ovarian = system: OVCAR-4 ovarian
OVCAR-5 ovarian = system: OVCAR-5 ovarian
OVCAR-8 ovarian = system: OVCAR-8 ovarian
RPMI-8226 leukemia = system: RPMI-8226 leukemia
RXF 393 renal = system: RXF 393 renal
SF-268 CNS = system: SF-268 CNS
SF-295 CNS = system: SF-295 CNS
SF-539 CNS = system: SF-539 CNS
SK-MEL-2 melanoma = system: SK-MEL-2 melanoma
SK-MEL-28 melanoma = system: SK-MEL-28 melanoma
SK-MEL-5 melanoma = system: SK-MEL-5 melanoma
SK-OV-3 ovarian = system: SK-OV-3 ovarian
SN12C renal = system: SN12C renal
SNB-19 CNS = system: SNB-19 CNS
SNB-75 CNS = system: SNB-75 CNS
SNB-78 CNS = system: SNB-78 CNS
SR leukemia = system: SR leukemia
SW-620 colon = system: SW-620 colon
TK-10 renal = system: TK-10 renal
U251 CNS = system: U251 CNS
UACC-257 melanoma = system: UACC-257 melanoma
UACC-62 melanoma = system: UACC-62 melanoma
UO-31 renal = system: UO-31 renal
XF 498 CNS = system: XF 498 CNS

SMILES: COCOCC[C@@H]1CC=CC(NC(=O)OCc2ccccc2)C1/C=C/C(=O)CCC1OCCO1 (some centres undefined)
- TGI (786-0 renal): > 100 µM
- TGI (A498 renal): > 100 µM
- TGI (A549 NSCLC): > 100 µM
- TGI (ACHN renal): > 100 µM
- TGI (CAKI-1 renal): > 100 µM
- TGI (CCRF-CEM leukemia): 75.7 µM
- TGI (COLO 205 colon): 37.9 µM
- TGI (DLD-1 colon): 33.4 µM
- TGI (DMS 114 small cell lung): 86.5 µM
- TGI (DMS 273 small cell lung): > 59.1 µM
- TGI (EKVX NSCLC): > 100 µM
- TGI (HCC-2998 colon): > 100 µM
- TGI (HCT-116 colon): 33.1 µM
- TGI (HCT-15 colon): 32.2 µM
- TGI (HL-60(TB) leukemia): 51 µM
- TGI (HOP-18 NSCLC): > 100 µM
- TGI (HOP-62 NSCLC): > 100 µM
- TGI (HOP-92 NSCLC): > 100 µM
- TGI (HT29 colon): > 100 µM
- TGI (IGROV1 ovarian): > 100 µM
- TGI (K-562 leukemia): > 100 µM
- TGI (KM12 colon): 45.4 µM
- TGI (KM20L2 colon): > 93.3 µM
- TGI (LOX IMVI melanoma): 34 µM
- TGI (LXFL 529 NSCLC): 73 µM
- TGI (M14 melanoma): 88.4 µM
- TGI (M19-MEL melanoma): 43.3 µM
- TGI (MALME-3M melanoma): > 100 µM
- TGI (MOLT-4 leukemia): 43.4 µM
- TGI (NCI-H226 lung): > 100 µM
- TGI (NCI-H23 lung): 97.8 µM
- TGI (NCI-H460 lung): > 100 µM
- TGI (NCI-H522 lung): 34.7 µM
- TGI (OVCAR-3 ovarian): > 76.1 µM
- TGI (OVCAR-4 ovarian): > 74.4 µM
- TGI (OVCAR-5 ovarian): > 100 µM
- TGI (OVCAR-8 ovarian): 39.3 µM
- TGI (RPMI-8226 leukemia): 63.5 µM
- TGI (RXF 393 renal): > 75.9 µM
- TGI (SF-268 CNS): 99 µM
- TGI (SF-295 CNS): > 100 µM
- TGI (SF-539 CNS): > 63 µM
- TGI (SK-MEL-2 melanoma): > 76.5 µM
- TGI (SK-MEL-28 melanoma): > 63.3 µM
- TGI (SK-MEL-5 melanoma): > 100 µM
- TGI (SK-OV-3 ovarian): > 100 µM
- TGI (SN12C renal): > 68.5 µM
- TGI (SNB-19 CNS): > 100 µM
- TGI (SNB-75 CNS): > 90 µM
- TGI (SNB-78 CNS): > 100 µM
- TGI (SR leukemia): 23.6 µM
- TGI (SW-620 colon): 59.5 µM
- TGI (TK-10 renal): > 100 µM
- TGI (U251 CNS): 70.6 µM
- TGI (UACC-257 melanoma): 66.3 µM
- TGI (UACC-62 melanoma): > 75.4 µM
- TGI (UO-31 renal): > 100 µM
- TGI (XF 498 CNS): > 100 µM

SMILES: CCCCCCCCCCCCCC(=O)OCC1OC(n2cc(F)c(=O)[nH]c2=O)C(N)C(OC(=O)CCCCCCCCCCCCC)C1O (centres undefined)
- TGI (786-0 renal): > 100 µM
- TGI (A498 renal): > 100 µM
- TGI (A549 NSCLC): > 100 µM
- TGI (ACHN renal): > 100 µM
- TGI (CAKI-1 renal): > 100 µM
- TGI (COLO 205 colon): > 100 µM
- TGI (DMS 114 small cell lung): > 100 µM
- TGI (DMS 273 small cell lung): > 100 µM
- TGI (EKVX NSCLC): > 100 µM
- TGI (HCC-2998 colon): > 100 µM
- TGI (HCT-116 colon): > 100 µM
- TGI (HCT-15 colon): > 100 µM
- TGI (HL-60(TB) leukemia): > 100 µM
- TGI (HOP-62 NSCLC): > 100 µM
- TGI (HOP-92 NSCLC): > 100 µM
- TGI (HT29 colon): > 100 µM
- TGI (K-562 leukemia): > 100 µM
- TGI (KM12 colon): > 100 µM
- TGI (KM20L2 colon): > 100 µM
- TGI (LOX IMVI melanoma): > 100 µM
- TGI (LXFL 529 NSCLC): > 100 µM
- TGI (M14 melanoma): > 100 µM
- TGI (M19-MEL melanoma): > 100 µM
- TGI (MALME-3M melanoma): > 100 µM
- TGI (MOLT-4 leukemia): > 100 µM
- TGI (NCI-H23 lung): > 100 µM
- TGI (NCI-H460 lung): > 100 µM
- TGI (NCI-H522 lung): > 100 µM
- TGI (OVCAR-3 ovarian): > 100 µM
- TGI (OVCAR-4 ovarian): > 100 µM
- TGI (OVCAR-8 ovarian): > 100 µM
- TGI (RPMI-8226 leukemia): > 100 µM
- TGI (RXF 393 renal): > 100 µM
- TGI (SF-268 CNS): > 100 µM
- TGI (SF-295 CNS): > 100 µM
- TGI (SF-539 CNS): > 100 µM
- TGI (SK-MEL-2 melanoma): > 100 µM
- TGI (SK-MEL-28 melanoma): > 100 µM
- TGI (SK-MEL-5 melanoma): > 100 µM
- TGI (SK-OV-3 ovarian): > 100 µM
- TGI (SN12C renal): > 100 µM
- TGI (SNB-19 CNS): > 100 µM
- TGI (SNB-75 CNS): > 100 µM
- TGI (SNB-78 CNS): > 100 µM
- TGI (SR leukemia): > 100 µM
- TGI (SW-620 colon): > 100 µM
- TGI (TK-10 renal): > 100 µM
- TGI (U251 CNS): > 100 µM
- TGI (UACC-257 melanoma): > 100 µM
- TGI (UACC-62 melanoma): > 100 µM
- TGI (UO-31 renal): > 100 µM
